Assay results taken from ChEMBL document CHEMBL1135637, “Quantitative structure--activity relations for gammadelta T cell activation by phosphoantigens” (J Med Chem, 2002).

Test: Effective concentration to activate gammadelta T cells
Assay type: functional, cell-based
Settings: t-cell

EC50 | Compound
8.66 µM | CC(O)(CI)CCOP(=O)(O)OP(=O)(O)OP(=O)(O)OCCC(C)(O)CI (stereo not given)
1580 µM | O=C(O)C(COP(=O)(O)O)OP(=O)(O)O (stereo not given)
44.7 µM | CCC(=O)COP(=O)(O)OP(=O)(O)O
1580 µM | CC(OP(=O)(O)O)C(=O)O (stereo not given)
7.07 µM | CC(COP(=O)(O)OP(=O)(O)O)C(C)(O)CI (stereo not given)
3.16 µM | CC(O)(CO)CCOP(=O)(O)OP(=O)(O)O (stereo not given)
31.6 µM | CCC(=O)CCOP(=O)(O)OP(=O)(O)O
31.6 µM | CC(=O)C(C)COP(=O)(O)OP(=O)(O)O (stereo not given)
224 µM | O=P(O)(O)OCCO
31.6 µM | CC(=O)CCCOP(=O)(O)OP(=O)(O)O
14.1 µM | CC(O)(CBr)CCOP(=O)(O)OP(=O)(O)OP(=O)(O)OCC(C)(O)CBr (stereo not given)
158 µM | C/C=C\COP(=O)(O)O
158 µM | CC(C)=CCOP(=O)(O)O
0.4 µM | C[C@@]1(CCOP(=O)(O)OP(=O)(O)O)CO1
1580 µM | O=P(O)(O)O[C@@H]1OC[C@@H](O)[C@H](O)[C@H]1O
2240 µM | CCC(C)OP(=O)(O)O (stereo not given)

EC50 | Compound
1580 µM | O=P(O)(O)OCC(O)CO (stereo not given)
158 µM | C=CCOP(=O)(O)O
40 µM | CC(=O)CCOP(=O)(O)OP(=O)(O)O
3.16 µM | C=CCOP(=O)(O)OP(=O)(O)O [ALLYL PYROPHOSPHATE]
0.01 µM | CC(O)(CBr)CCOP(=O)(O)OP(=O)(O)O (stereo not given) [BROMOHYDRIN PYROPHOSPHATE]
0.346 µM | CC(O)(CBr)CCOP(=O)(O)OP(=O)(O)OP(=O)(O)O (stereo not given) [BROMOHYDRIN TRIPHOSPHATE]
0.0707 µM | CC(O)(CCl)CCOP(=O)(O)OP(=O)(O)O (stereo not given) [CHLOROHYDRIN PYROPHOSPHATE]
3.16 µM | C/C=C\COP(=O)(O)OP(=O)(O)O [CROTYL PYROPHOSPHATE]
1 µM | CCCCCN(C)CCC(O)(P(=O)(O)O)P(=O)(O)O [IBANDRONIC ACID]
0.0012 µM | CC(O)(CI)CCOP(=O)(O)OP(=O)(O)O (stereo not given) [IODOHYDRIN PYROPHOSPHATE]
0.224 µM | CC(O)(CI)CCOP(=O)(O)OP(=O)(O)OP(=O)(O)O (stereo not given) [IODOHYDRIN TRIPHOSPHATE]
158 µM | C=C(C)CCOP(=O)(O)O [ISOPENTENYL PHOSPHATE]
5.66 µM | NCCC(O)(P(=O)(O)O)P(=O)(O)O [PAMIDRONIC ACID]
707 µM | O=C(O)COP(=O)(O)O [PHOSPHOGLYCOLIC ACID]
707 µM | CC(C)OP(=O)(O)O [PHOSPHORYLISOPROPANE]
707 µM | CCCOP(=O)(O)O [PROPYL PHOSPHATE]

Compound | EC50
NCCCC(O)(P(=O)(O)O)P(=O)(O)O [ALENDRONIC ACID] | 0.9 µM
CCOP(=O)(OCC)OP(=O)(OCC)OCC [ETHYL PYROPHOSPHATE] | 3.16 µM
COP(=O)(O)O [PHOSPHORIC ACID MONOMETHYL ESTER] | 707 µM
